What was measured:
[1] = tested on: Pol I transcription (5′ETS RNA); test: rDNA transcription: BrU incorporation and qRT-PCR of 5′ETS; format: cell-based
Description: To determine which steps in ribosomal biogenesis that are disrupted by metarrestin, rDNA transcription was evaluated using a BrU incorporation assay, an in situ run-on assay that detects the localization pattern of newly synthesized RNA. Cells were rinsed once in glycerol buffer (20 mM Tris-HCl pH 7.4, 5 mM MgCl2, 25% glycerol, 0.5 mM PMSF, 0.5 mM EGTA) and followed by Br—U incorporation assay protocol. The cells were co-immunolabeled with C23 (Santa Cruz Biotechnology) at a 1:100 dilution and anti-BrdU that also recognizes Br—U (Sigma) at a 1:50 dilution.
To evaluate the impact on rDNA transcription in metarrestin-treated cells, the amounts of 5′ETS RNA were quantified. The amount of 5′ETS correlates with the amount of rDNA transcription because 5′ETS in nascent pre-rRNA transcripts is rapidly removed.
RT-PCR: Total RNA was isolated from cells using TRIZOL reagent (Invitrogen) according to the manufacturer's instructions. cDNA was synthesized with Random Hexamer (IDT DNA Technologies) or gene-specific primers using M-MLV Reverse Transcriptase (Invitrogen 28025-013). The DNA was PCR-amplified with gene-specific primers. 5′ETS-F: […] (SEQ ID NO: 11); 5′ETS-R: GAACGACACACCACCGTTC (SEQ ID NO: 12); eEF1A1-F: […] […]

[2] = Repeat dose plasma pharmacokinetics, IP; format: in vivo, SCID Beige mice; conditions: for concentration at 24 h: SCID Beige, mouse, plasma, intraperitoneal
Description: Metarrestin was administered to female BALB/c mice, n=3 in the single dose and the repeat doses were administered to SCID-beige mice, n=3 per time point. The repeat dose study mice were given daily intraperitoneal injections for 4 weeks, with concentration measured 24 h after the last dose. Metarrestin was formulated in 5% NMP+20% PEG400+75% (10% […] in water).
BALB/c mice, 17-19 g, female, n=66, were purchased and had free access to food and water. They were dosed with metarrestin at 5 or 25 mg/kg (10 ml/kg) in 5% NMP [NMP (Sigma-Aldrich cat #270458), 20% PEG400 (Sigma-Aldrich cat #202398), and 75% 10% HPBCD (Sigma-Aldrich cat #H107)] via lower left abdominal quadrant injection (n=33 each dose). The animals were anesthetized with isoflurane and restrained manually at the designated time points. Approximately 120 μL of blood were taken from the animals into K2EDTA tubes via retro-orbital puncture. Blood samples were placed on ice and centrifuged (2,000 g, 5 min under 4° C.) to obtain plasma samples within 15 minutes. An aliquot of 20 μL plasma sample was protein-precipitated with 200 μL acetonitrile that contained 50 ng/mL IS (dexamethasone). The mixture was vortexed for 2 min, centrifuged at 14,000 rpm for 5 min, and an aliquot of 30 μL supernatant was diluted with 70 μL MeOH:H2O (1:1, v/v), then vortexed for 2 min. A 2 μL aliquot of supernatant was injected into UPLC-MS/MS. Analysis of samples was done with an LC-MS/MS-02 (API4000), Waters-BEH-C18 (2.1×50 mm, 1.7 μm) column, flow rate 0.6 mL/min, with a mobile phase consisting of solvent A (H2O— 0.025% FA-1 mM NH4OAc) and solvent B (MeOH— 0.025% FA-1 mM NH4OAc). The gradient was 10, 90, 90, 10% B at 0.30, 0.60, 1.20, 1.21, 1.80 (stop) min. Retention times for metarrestin and dexamethasone were 1.09 and 1.08 min, respectively. Calibration curves were established with known serially diluted concentrations of metarrestin before analysis. SCID Beige mice were purchased and dosed with metarrestin at 5 and 25 mg/kg, once daily at 24 hour intervals for 4 weeks as above. Twenty-four hours after the final dose, the concentrations of metarrestin in plasma were analyzed.

[3] = tested on: RPA194 and UBF occupancy on rDNA; test: Quantitative ChIP on rDNA; format: cell-based; conditions: HeLa cells
Description: ChIP-qPCR: 2-5×10^7 cells were used for each ChIP assay according to previously described protocols. Briefly, HeLa cells with or without metarrestin treatment were crosslinked with 1% formaldehyde for 10 min at room temperature with rotation, and then crosslinking was quenched by the addition of glycine. Fixed chromatin was sonicated by Covaris and used for immunoprecipitation with the indicated antibody. Isolated DNA was analyzed by qPCR using SYBR green on CFX Connect Real-Time PCR Detection System (BioRad). The comparative cycle threshold method was applied to evaluate occupancy from replicate PCR reactions relative to the level of input. […]
Psoralen crosslinks active accessible DNA under UV light without displacing nucleosomes or transcription factors, or changing chromatin states. […] To examine the interactions between Pol I transcription factors and rDNA, quantitative ChIP experiments were carried out using primer sets across promoter and coding regions of rDNA (FIG. 29-30E).

[4] = 25 mg/kg IP once daily for 4 weeks, 24 h after the final dose

In the case of N=c1c2c(-c3ccccc3)c(-c3ccccc3)n(Cc3ccccc3)c2ncn1[C@H]1CC[C@H](O)CC1 [metarrestin], the “Organization of newly synthesized rRNA (BrU incorporation)” value ([1]; five-minute incubation) is reported as “altered into tight small clusters”, the “5′ETS RNA (quantitative RT-PCR)” value ([1]; vs DMSO-treated control cells) is reported as “substantial reduction of 5′ETS RNA” and the Plasma concentration [2, 4] is reported as 1.46 µM. The concentration at 24 h ([2]; 5 mg/kg IP once daily for 4 weeks, 24 h after the final dose) was 48.4 ng/mL, the concentration at 24 h [2, 4] was 692 ng/mL and the Risk of accumulation ([2]; single and multiple daily IP dosing, 5 and 25 mg/kg) was “predicted moderate risk of accumulation”. The “UBF binding to rDNA” value [3] was “without significant impact on UBF binding” and the “RPA194 occupancy on rDNA promoter and coding regions” value ([3]; p<0.01) was “significantly reduced RPA194 occupancy”.

Source: patent publication US20210186972A1, “FORMULATIONS AND METHODS FOR THE PREVENTION AND TREATMENT OF TUMOR METASTASIS AND TUMORIGENESIS” (THE UNITED STATES OF AMERICA, AS REPRESENTED BY THE …, priority 2018, published 2021)
